Source: US20120214862A1, “MODULATION OF FACTOR 7 EXPRESSION” (ISIS Pharmaceuticals, Inc., priority 2009, published 2012)
In the oligonucleotide strings, read from the 5' end, every base follows the letter of its sugar. An asterisk marks phosphorothioate; unmarked linkages are phosphodiester. Other units and linkages are bracketed, terminal groups are in braces. A string of capitals states the bases alone. e = 2'-O-(2-methoxyethyl) (MOE); [5mC] = 5-methylcytosine; d = 2'-deoxy (DNA)

Tests used:
Assay type in all cases: cell-based
human Factor 7 mRNA [1] = assay: Inhibition of human Factor 7 mRNA by 2-10-2 MOE shortmers in HepB3 cells, electroporation, 1,000 nM; conditions: electroporation, 1,000 nM oligonucleotide, approximately 24 hours, relative to untreated control cells
Description: Short antisense oligonucleotides (shortmers) were designed to target a Factor 7 nucleic acid. The shortmers in Table 17 were designed as 2-10-2 MOE gapmers. The gapmers are 14 nucleotides in length, wherein the central gap segment is comprised of 10 2′-deoxynucleotides and is flanked on both sides (in the 5′ and 3′ directions) by wings comprising 2 nucleotides each. Each nucleotide in the 5′ wing segment and each nucleotide in the 3′ wing segment has a 2′-MOE modification. The internucleoside linkages throughout each gapmer are phosphorothioate (P═S) linkages. All cytidine residues throughout each gapmer are 5-methylcytidines.
Shortmers were evaluated for their ability to reduce human Factor 7 mRNA in HepB3 cells and compared with one 5-10-5 chimeric oligonucleotide from Table 16, ISIS 407939. HepB3 cells at a density of 20,000 cells per well in a 96-well plate were transfected using electroporation with 1,000 nM of antisense oligonucleotide. After a treatment period of approximately 24 hours, RNA was isolated from the cells and Factor 7 mRNA levels were measured by real-time RT-PCR, as described herein. Factor 7 mRNA levels were adjusted according to total RNA content as measured by RIBOGREEN®. Results are presented in Table 17 as percent inhibition of Factor 7 mRNA, relative to untreated control cells. ISIS 407939 is the first oligonucleotide in […] to which the shortmers were compared, and is marked by an asterisk (*).

human Factor 7 mRNA [2] = assay: Dose-dependent antisense inhibition of human Factor 7 in HepB3 cells, transfection with lipofectin; conditions: HepB3, lipofectin, ~16 h
Method: Cells were plated at a density of 4,000 cells per well and treated with lipofectin reagent with 3.125 nM, 6.25 nM, 12.5 nM, 25 nM, 50 nM, and 100 nM concentrations of antisense oligonucleotide, as indicated in Table 3. After a treatment period of approximately 16 hours, RNA was isolated from the cells and Factor 7 mRNA levels were measured by real-time RT-PCR, as described herein. Human Factor 7 primer probe set RTS 2927 (forward sequence: […], incorporated herein as SEQ ID NO: 164; reverse sequence: […], incorporated herein as SEQ ID NO: 165; probe sequence: TGGGTGGTCTCCGCGGCCX, incorporated herein as SEQ ID NO: 166) was used to measure mRNA levels. Factor 7 mRNA levels were adjusted according to total RNA content as measured by RIBOGREEN®. Results are presented as percent inhibition of Factor 7, relative to untreated control cells.
Cells were plated at a density of 4,000 cells per well and transfected using lipofectin reagent with 6.25 nM, 12.5 nM, 25.0 nM, 50.0 nM, and 100.0 nM concentrations of antisense oligonucleotide, as indicated in Table 7. After a treatment period of approximately 16 hours, RNA was isolated from the cells and Factor 7 mRNA levels were measured by real-time RT-PCR, as described herein. Human Factor 7 primer probe set RTS 2927 was used to measure mRNA levels. Factor 7 mRNA levels were adjusted according to total RNA content as measured by RIBOGREEN®. Results are presented as percent inhibition of Factor 7, relative to untreated control cells.
Cells were plated at a density of 4,000 cells per well and transfected using lipofectin reagent with 3.125 nM, 6.25 nM, 12.5 nM, 25 nM, 50 nM, and 100 nM concentrations of antisense oligonucleotide, as specified in Table 14. After a treatment period of approximately 16 hours, RNA was isolated from the cells and Factor 7 mRNA levels were measured by quantitative real-time PCR. Human Factor 7 primer probe set RTS 2927 was used to measure mRNA levels. Factor 7 mRNA levels were adjusted according to total RNA content, as measured by RIBOGREEN®. Results are presented as percent inhibition of Factor 7, relative to untreated control cells.

human Factor 7 mRNA [3] = assay: Antisense inhibition of human Factor 7 mRNA in HepB3 cells, lipofectin, 50 nM, real-time RT-PCR; conditions: HepB3 cells, lipofectin
In short: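 Percent inhibition of Factor 7 mRNA, relative to untreated control, comes from real-time RT-PCR with RIBOGREEN normalization, using primer probe set RTS 2927 in some runs. RNA was taken roughly 24 h after lipofectin delivery of 50 nM oligonucleotide into HepB3 cells.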

435843 (antisense eG*e[5mC]*dT*dG*dG*dA*dG*d[5mC]*dT*dG*dA*dG*e[5mC]*e[5mC]) [compound 435843]
% inhibition of human Factor 7 mRNA (human Factor 7 mRNA [1]): 0%

435655 (antisense eA*e[5mC]*dA*dG*d[5mC]*d[5mC]*dG*d[5mC]*d[5mC]*dG*dT*dT*e[5mC]*eT) [compound 435655]
% inhibition of human Factor 7 mRNA (human Factor 7 mRNA [1]): 49%

435826 (antisense eA*eA*dG*dT*dG*dG*d[5mC]*dT*dG*dG*d[5mC]*dT*eG*eA) [compound 435826]
% inhibition of human Factor 7 mRNA (human Factor 7 mRNA [1]): 27%

435727 (antisense eT*eG*dG*dA*dG*dT*d[5mC]*dA*dG*d[5mC]*dA*dT*e[5mC]*eG) [compound 435727]
% inhibition of human Factor 7 mRNA (human Factor 7 mRNA [1]): 73%

435722 (antisense eT*eG*dG*dG*d[5mC]*dT*dT*dG*dG*d[5mC]*dT*dG*eA*eA) [compound 435722]
% inhibition of human Factor 7 mRNA (human Factor 7 mRNA [1]): 50%

435848 (antisense eT*eG*dG*d[5mC]*d[5mC]*dA*d[5mC]*dT*dG*d[5mC]*d[5mC]*dT*e[5mC]*eA) [compound 435848]
% inhibition of human Factor 7 mRNA (human Factor 7 mRNA [1]): 32%

435805 (antisense eT*eG*dA*dA*dT*dT*dA*d[5mC]*dT*dG*dA*dA*e[5mC]*e[5mC]) [compound 435805]
% inhibition of human Factor 7 mRNA (human Factor 7 mRNA [1]): 0%

435491 (antisense e[5mC]*e[5mC]*d[5mC]*dT*dG*dG*dT*dG*dT*dA*d[5mC]*dA*e[5mC]*e[5mC]) [compound 435491]
% inhibition of human Factor 7 mRNA (human Factor 7 mRNA [1]): 61%

435679 (antisense e[5mC]*eG*d[5mC]*dT*dG*dA*dG*dG*dT*d[5mC]*dG*dT*eG*e[5mC]) [compound 435679]
% inhibition of human Factor 7 mRNA (human Factor 7 mRNA [1]): 62%

435641 (antisense eG*eG*dT*d[5mC]*d[5mC]*d[5mC]*d[5mC]*dA*dT*d[5mC]*dA*d[5mC]*eT*eG) [compound 435641]
% inhibition of human Factor 7 mRNA (human Factor 7 mRNA [1]): 51%

435775 (antisense eT*e[5mC]*dT*dG*dG*dA*dA*dG*dG*dA*dA*d[5mC]*eA*eG) [compound 435775]
% inhibition of human Factor 7 mRNA (human Factor 7 mRNA [1]): 25%

435787 (antisense eG*eA*dG*dT*dG*dT*dG*dA*dG*dG*d[5mC]*dT*eT*e[5mC]) [compound 435787]
% inhibition of human Factor 7 mRNA (human Factor 7 mRNA [1]): 34%

435692 (antisense e[5mC]*eG*dG*dT*d[5mC]*d[5mC]*dA*dG*d[5mC]*dA*dG*d[5mC]*eT*eG) [compound 435692]
% inhibition of human Factor 7 mRNA (human Factor 7 mRNA [1]): 32%

435721 (antisense eT*eA*dA*dG*dG*dA*dG*dG*d[5mC]*dT*d[5mC]*dA*eG*e[5mC]) [compound 435721]
% inhibition of human Factor 7 mRNA (human Factor 7 mRNA [1]): 12%

435788 (antisense e[5mC]*e[5mC]*dT*dG*dT*dG*dA*dG*dT*dG*dT*dG*eA*eG) [compound 435788]
% inhibition of human Factor 7 mRNA (human Factor 7 mRNA [1]): 20%

435771 (antisense eG*eT*d[5mC]*dA*dT*dA*dA*dG*dG*d[5mC]*d[5mC]*dA*eT*eG) [compound 435771]
% inhibition of human Factor 7 mRNA (human Factor 7 mRNA [1]): 13%

435495 (antisense eG*eA*dG*dA*d[5mC]*d[5mC]*d[5mC]*dT*dG*dG*dT*dG*eT*eA) [compound 435495]
% inhibition of human Factor 7 mRNA (human Factor 7 mRNA [1]): 27%

435789 (antisense e[5mC]*eA*dT*dG*dT*dT*dA*dG*d[5mC]*d[5mC]*dT*dT*eT*eG) [compound 435789]
% inhibition of human Factor 7 mRNA (human Factor 7 mRNA [1]): 3%

435812 (antisense eG*e[5mC]*dT*dG*dA*dG*d[5mC]*dA*dG*dA*dG*dA*eT*e[5mC]) [compound 435812]
% inhibition of human Factor 7 mRNA (human Factor 7 mRNA [1]): 35%

435728 (antisense eA*e[5mC]*dA*d[5mC]*dA*dT*dG*dG*dA*dG*dT*d[5mC]*eA*eG) [compound 435728]
% inhibition of human Factor 7 mRNA (human Factor 7 mRNA [1]): 16%

435765 (antisense e[5mC]*eA*dA*dA*dG*dT*dT*d[5mC]*dT*d[5mC]*dT*dG*e[5mC]*e[5mC]) [compound 435765]
% inhibition of human Factor 7 mRNA (human Factor 7 mRNA [1]): 1%

435746 (antisense eA*eT*dT*dG*dA*d[5mC]*dA*dA*dG*dG*dG*d[5mC]*eT*eG) [compound 435746]
% inhibition of human Factor 7 mRNA (human Factor 7 mRNA [1]): 32%

435653 (antisense eA*eT*d[5mC]*dA*dG*d[5mC]*dT*dG*dG*dT*d[5mC]*dA*eT*e[5mC]) [compound 435653]
% inhibition of human Factor 7 mRNA (human Factor 7 mRNA [1]): 32%

435798 (antisense eA*eG*d[5mC]*d[5mC]*dA*dG*dA*d[5mC]*dT*dT*dT*d[5mC]*e[5mC]*eT) [compound 435798]
% inhibition of human Factor 7 mRNA (human Factor 7 mRNA [1]): 54%

435777 (antisense e[5mC]*eT*dG*dA*dG*dG*dA*dT*dG*d[5mC]*dA*dG*eG*e[5mC]) [compound 435777]
% inhibition of human Factor 7 mRNA (human Factor 7 mRNA [1]): 53%

435719 (antisense e[5mC]*eA*dG*d[5mC]*d[5mC]*dT*dT*dG*dG*d[5mC]*dT*dT*eT*e[5mC]) [compound 435719]
% inhibition of human Factor 7 mRNA (human Factor 7 mRNA [1]): 50%

435725 (antisense eG*e[5mC]*dA*dG*d[5mC]*d[5mC]*dT*dG*dA*dG*dG*d[5mC]*e[5mC]*eA) [compound 435725]
% inhibition of human Factor 7 mRNA (human Factor 7 mRNA [1]): 79%

435827 (antisense eT*e[5mC]*dA*dG*dA*dA*dA*dG*dA*dT*dG*d[5mC]*eA*eG) [compound 435827]
% inhibition of human Factor 7 mRNA (human Factor 7 mRNA [1]): 5%

435841 (antisense e[5mC]*eT*d[5mC]*dG*dG*dA*d[5mC]*dA*dA*dA*dA*dG*eA*eG) [compound 435841]
% inhibition of human Factor 7 mRNA (human Factor 7 mRNA [1]): 1%

435696 (antisense e[5mC]*eA*dG*dA*dA*d[5mC]*dA*dT*dG*dT*dA*d[5mC]*eT*e[5mC]) [compound 435696]
% inhibition of human Factor 7 mRNA (human Factor 7 mRNA [1]): 10%

435660 (antisense e[5mC]*e[5mC]*dG*dT*d[5mC]*dT*dG*d[5mC]*d[5mC]*dA*dG*d[5mC]*eA*eG) [compound 435660]
% inhibition of human Factor 7 mRNA (human Factor 7 mRNA [1]): 58%

435698 (antisense e[5mC]*e[5mC]*dT*dT*dG*d[5mC]*dA*dG*dG*dA*dG*dT*e[5mC]*e[5mC]) [compound 435698]
% inhibition of human Factor 7 mRNA (human Factor 7 mRNA [1]): 61%

435733 (antisense e[5mC]*eT*dG*dA*dA*dT*dT*dG*dT*d[5mC]*dT*dG*eA*eA) [compound 435733]
% inhibition of human Factor 7 mRNA (human Factor 7 mRNA [1]): 5%

407900 (antisense e[5mC]*e[5mC]*e[5mC]*e[5mC]*eA*d[5mC]*dA*dA*dT*dT*d[5mC]*dG*dG*d[5mC]*d[5mC]*eT*eT*eG*eG*eG) [compound 407900]
percent inhibition of Factor 7 mRNA, 3.125 nM (human Factor 7 mRNA [2]; Example 2, 3.125 nM): 52% | percent inhibition of Factor 7 mRNA, 6.25 nM (human Factor 7 mRNA [2]; Example 2): 58% | percent inhibition of Factor 7 mRNA, 12.5 nM (human Factor 7 mRNA [2]; Example 2): 80% | percent inhibition of Factor 7 mRNA, 25.0 nM (human Factor 7 mRNA [2]; Example 2): 87% | percent inhibition of Factor 7 mRNA, 50.0 nM (human Factor 7 mRNA [2]; Example 2): 94% | percent inhibition of Factor 7 mRNA, 100.0 nM (human Factor 7 mRNA [2]; Example 2): 91% | percent inhibition of Factor 7 mRNA, 6.25 nM (human Factor 7 mRNA [2]; Example 5): 18% | percent inhibition of Factor 7 mRNA, 12.5 nM (human Factor 7 mRNA [2]; Example 5): 36% | percent inhibition of Factor 7 mRNA, 25.0 nM (human Factor 7 mRNA [2]; Example 5): 61% | percent inhibition of Factor 7 mRNA, 50.0 nM (human Factor 7 mRNA [2]; Example 5): 82% | percent inhibition of Factor 7 mRNA, 100.0 nM (human Factor 7 mRNA [2]; Example 5): 91% | % Inhibition (human Factor 7 mRNA) (human Factor 7 mRNA [3]; Example 1, 50 nM, ~24 h, relative to untreated control cells): 91% | % Inhibition of human Factor 7 mRNA levels (human Factor 7 mRNA [3]; 50 nM antisense oligonucleotide, approximately 24 hours, primer probe set RTS 2927, relative to untreated control): 78%
